Experimental findings from PubChem BioAssay (NCI) are described below.

Molecules are shown by their SMILES.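 All cell lines were grown in 96-well plates and treated with compound for 48 hours. TGI is the concentration that stops growth completely.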

Holding throughout (assay): NCI-60 cell line screen, 48 h
The test system of test [1] is MDA-MB-435.
The test system of test [2] is HOP-92 NSCLC.
Test [3] has as its system HCT-116 colon.
For test [4], the system named is KM12 colon.
Test [5] has as its system HCC-2998 colon.
Test [6] deals with SF-295 CNS.
Test [7] relates to MCF7 breast.
Test [8] has as its system NCI/ADR-RES ovarian.
Test [9] has as its system OVCAR-5 ovarian.
The test system of test [10] is SW-620 colon.
In test [11] the test system is M14 melanoma.
Test [12] has as its system MOLT-4 leukemia.
Test [13] deals with HCT-15 colon.
The test system of test [14] is COLO 205 colon.
Test [15] concerns A549 NSCLC.
Test [16] has as its system A498 renal.
Test [17] has as its system MALME-3M melanoma.
The test system of test [18] is RPMI-8226 leukemia.
In test [19] the test system is RXF 393 renal.

In the case of `O=S1CCS(=O)CCS(=O)CC1` (configuration not stated), the TGI in test [1], in [2], in [3], in test [4], in [5] and in [6] was more than 100 µM each time. Also, the TGI in test [7], in test [8], in test [9], in test [10], in [11] and in [12] was more than 100 µM in each case. Also, the TGI in [13], in test [14] and in test [15] was more than 100 µM throughout.

For the compound `O=C1SS(=O)c2ccccc21` (configuration not stated), the TGI in test [16], in test [1], in test [2], in test [3], in test [17] and in [18] was more than 100 µM throughout. The TGI in [4], in test [5], in test [6], in [7], in [8] and in [9] was more than 100 µM in each case. The TGI in test [10], in test [11], in test [12], in test [13], in test [14] and in [15] was more than 100 µM throughout.

`O=C(COc1ccc(OCC(=O)N2C(=O)CSC2=Nc2ccccc2)cc1)N1C(=O)CSC1=Nc1ccccc1`: the TGI is more than 100 µM in [16]; more than 100 µM in [1]; more than 100 µM in test [2]; 27.3 µM in test [3]; 86.2 µM in [17]; more than 100 µM in [18]. Also, the TGI is 44.3 µM in test [4]; 44.2 µM in [5]; more than 100 µM in test [6]; more than 100 µM in test [7]; more than 100 µM in test [8]; 91.9 µM in test [9]. Also, the TGI is more than 100 µM in [19]; more than 100 µM in [10]; more than 100 µM in test [11]; more than 100 µM in [12]; more than 100 µM in [13]; 96.2 µM in test [14]. In test [15], the TGI is more than 100 µM.

For `O/C(=C\c1nc2ccccc2nc1/C=C(\O)c1ccc(Cl)cc1)c1ccccc1`, the TGI in [16], in [1], in [3], in test [17], in test [18] and in [4] was more than 100 µM each time. Further, the TGI in test [5], in test [6], in test [7], in test [8], in test [9] and in [19] was more than 100 µM in each case. The TGI in [10] is more than 100 µM; in test [11] it was more than 100 µM; in test [12], 40.9 µM; in [13], more than 100 µM; in test [14], more than 100 µM; in test [15], more than 100 µM.

Turning to `COC(=O)N1CCc2c(nc(N(C)CCO)[nH]c2=O)C1`, the TGI in test [16], in test [2], in test [3], in test [17], in [18] and in test [4] was more than 100 µM each time. The TGI in test [5], in [6], in test [9], in test [19], in [10] and in [11] was more than 100 µM throughout. In addition, the TGI in test [12], in test [13], in test [14] and in test [15] was more than 100 µM in each case.

On to `CC(C)(C)c1cc(C(C)(C)C)c(SS(=O)(=O)O)c(O)c1O`, for which the TGI in [16], in [1], in [2], in test [3], in test [17] and in test [18] was more than 100 µM in each case. The TGI was more than 100 µM in test [4]; more than 100 µM in test [6]; more than 100 µM in test [7]; more than 100 µM in test [8]; more than 100 µM in test [9]; 97.9 µM in test [19]. Moreover, the TGI in test [10] was more than 100 µM; in [11], more than 100 µM; in [12] it was 0.219 µM; in test [13], more than 100 µM; in [14], more than 100 µM; in test [15], more than 100 µM.

Turning to `Clc1ccc2c(c1)C1C(CO2)C(c2ccccc2)=NN1c1ccccc1` (configuration not stated), the TGI in test [16] was more than 100 µM; in [2], 58.9 µM; in test [3], 62.4 µM; in [17] it was more than 100 µM; in test [18] it was 47.6 µM; in test [4], more than 100 µM. Moreover, the TGI is more than 100 µM in [5]; more than 100 µM in test [6]; more than 100 µM in test [9]; more than 100 µM in [19]; more than 100 µM in test [10]; 62.6 µM in test [12]. Also, the TGI in [14] and in test [15] was more than 100 µM each time.

Take `COc1ccc(C(=O)Cc2c(C(=O)c3ccccc3)c3ccccc3n2C(=O)c2ccccc2)cc1`: the TGI was more than 100 µM in [2]; more than 100 µM in [3]; more than 100 µM in test [17]; 70.9 µM in [18]; more than 100 µM in test [4]; more than 100 µM in test [5]. Moreover, the TGI in test [6], in test [9], in test [10], in test [11], in test [12] and in test [13] was more than 100 µM each time. The TGI in test [14] and in [15] was more than 100 µM throughout.
